From patent US9073830B2 (Hyundai Pharm Co., Ltd., priority 2011, dated 2015) come the findings set out here.

Experiment [1] addresses T1, human 11β-HSD1 (Homo sapiens, UniProt P28845).
T1 construct: 100 ug/ml human/mouse liver microsomes; from tissue; host or cells: human liver microsomes
Kind of experiment: Enzyme activity analysis on human 11β-HSD1 (HTRF cortisol, liver microsomes). Format: biochemical. As to conditions: first value of cell. The procedure: (§1) After culturing at 37° C. for 2 hours, 5 μl of cryptate-labeled anti-cortisol antibody and 5 μl of d2-labeled cortisol were added thereto. After further culturing at room temperature for 2 hours, a homogeneous time-resolved fluorescence (HTRF, Cisbio) signal was measured. From each analysis, based on a standard curve calculated using cortisols of several known concentrations, an amount of produced cortisol was tested.
(§2) While an amount of cortisol, produced without the compound, was used as a control, an inhibition percentage by the test compound, at each concentration, was calculated. By using an inhibition curve calculated by coordinates of inhibition percentage to test compound concentration, an IC50 value of the compound on 11β-HSD1 was obtained.

The target in experiment [2] is T2, mouse 11β-HSD1 (Mus musculus, UniProt P50172).
T2 construct: 100 ug/ml human/mouse liver microsomes; from tissue; host or cells: mouse liver microsomes
T2 sequence (P50172 whole entry): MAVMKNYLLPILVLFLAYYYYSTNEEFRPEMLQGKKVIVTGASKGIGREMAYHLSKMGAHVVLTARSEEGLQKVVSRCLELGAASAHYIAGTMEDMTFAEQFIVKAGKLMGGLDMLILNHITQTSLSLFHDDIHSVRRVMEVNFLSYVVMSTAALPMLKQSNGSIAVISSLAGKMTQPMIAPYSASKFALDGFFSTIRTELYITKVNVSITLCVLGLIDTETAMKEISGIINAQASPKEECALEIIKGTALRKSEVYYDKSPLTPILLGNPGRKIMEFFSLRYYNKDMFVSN
The experiment is described as follows: Enzyme activity analysis on mouse 11β-HSD1 (HTRF cortisol, liver microsomes). Format: biochemical. As to conditions: second value of cell. The procedure: as §1, §2

T1 sequence (P28845 whole entry): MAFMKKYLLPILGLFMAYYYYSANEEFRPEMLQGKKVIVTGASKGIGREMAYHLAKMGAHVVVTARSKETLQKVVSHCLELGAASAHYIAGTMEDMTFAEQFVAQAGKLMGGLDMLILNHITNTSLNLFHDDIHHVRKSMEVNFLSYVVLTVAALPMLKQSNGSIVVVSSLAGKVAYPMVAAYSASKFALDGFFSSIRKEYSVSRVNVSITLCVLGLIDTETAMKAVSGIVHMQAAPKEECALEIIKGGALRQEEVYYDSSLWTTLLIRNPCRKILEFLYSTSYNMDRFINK

In the case of `CC(C)(NS(=O)(=O)Cc1ccc(C(F)(F)F)cc1)C(=O)NC1C2CC3CC(C2)CC1C3` (centres unmarked) [compound 36, N-(adamantane-2-yl)-2-methyl-2-((4-trifluoromethylphenyl)methylsulfonamido)propanamide], the IC50 was 0.04 µM in experiment [1] and more than 2.5 µM in experiment [2]. Turning to `CC(C)(NS(=O)(=O)c1cccc(C(F)(F)F)c1)C(=O)NC1C2CC3CC(C2)CC1C3` (centres unmarked) [compound 19, N-(adamantane-2-yl)-2-methyl-2-(3-trifluoromethylphenylsulfonamido)propanamide], the IC50 in experiment [1] is 0.478 µM. Take `CN(C(C)(C)C(=O)NC1C2CC3CC1CC(C(N)=O)(C3)C2)S(=O)(=O)c1ccccc1Br` (centres unmarked) [compound 189, N-4-(2-(2-bromo-N-methylphenylsulfonamido)-2-methylpropanamido)adamantane-1-carboxyamide]: the IC50 in experiment [1] was 0.018 µM; in experiment [2], more than 2.5 µM.

As to `CC(C)(NS(=O)(=O)c1ccc(Cl)cc1[N+](=O)[O-])C(=O)NC1C2CC3CC1CC(O)(C3)C2` (centres unmarked) [compound 79, N-(5-hydroxyadamantane-2-yl)-2-methyl-2-(4-chloro-2-nitrophenylsulfonamido)propanamide], the half-maximal inhibitory concentration (IC50) in experiment [1] stood at 0.083 µM; in experiment [2] it was 0.797 µM. Regarding `Cc1ccc(F)c(S(=O)(=O)NC2(C(=O)NC3C4CC5CC3CC(C(N)=O)(C5)C4)CCC2)c1` (centres unmarked) [compound 164, N-4-(1-(2-fluoro-5-methylphenylsulfonamido)cyclobutanecarboxyamido)adamantane-1-carboxyamide], the IC50 in experiment [1] amounted to 0.058 µM; in experiment [2] it was 0.298 µM.

As for `CC(C)(NS(=O)(=O)c1ccc(Br)cc1)C(=O)NC1C2CC3CC(C2)CC1C3` (centres unmarked) [compound 65, N-(adamantane-2-yl)-2-methyl-2-(4-bromophenylsulfonamido)propanamide], the IC50 came to 0.996 µM in experiment [1] and 1.65 µM in experiment [2]. On to `CN(C(C)(C)C(=O)NC1C2CC3CC1CC(C(N)=O)(C3)C2)S(=O)(=O)c1cccc2cccnc12` (centres unmarked) [compound 188, N-4-(2-methyl-2-(N-methylquinoline-8-sulfonamido)propanamido)adamantane-1-carboxyamide], for which the figures for the IC50 in experiment [1] and in experiment [2] were 0.013 µM and 0.007 µM, respectively.

`COc1ccc(S(=O)(=O)NC(C)(C)C(=O)NC2C3CC4CC(C3)CC2C4)cc1` (centres unmarked) [compound 24, N-(adamantane-2-yl)-2-methyl-2-(4-methoxyphenylsulfonamido)propanamide]: the 50% inhibitory concentration (IC50) in experiment [1] worked out at 0.404 µM.

Turning to `COc1cccc(S(=O)(=O)NC(C)(C)C(=O)NC2C3CC4CC(C3)CC2C4)c1` (centres unmarked) [compound 29, N-(adamantane-2-yl)-2-methyl-2-(3-methoxyphenylsulfonamido)propanamide], the half-inhibitory concentration (IC50) in experiment [1] came to 0.216 µM; in experiment [2], 0.329 µM.

Take `Cc1ccc(S(=O)(=O)NC2(C(=O)NC3C4CC5CC3CC(C(N)=O)(C5)C4)CCC2)cc1F` (centres unmarked) [compound 151, N-4-(1-(3-fluoro-4-methylphenylsulfonamido)cyclobutanecarboxyamido)adamantane-1-carboxyamide]: the IC50 in experiment [1] turned out to be 0.182 µM; in experiment [2] it was 0.062 µM. Regarding `NC(=O)C12CC3CC(C1)C(NC(=O)C1(NS(=O)(=O)c4cc(F)ccc4F)CCC1)C(C3)C2` (centres unmarked) [compound 163, N-4-(1-(2,5-difluorophenylsulfonamido)cyclobutanecarboxyamido)adamantane-1-carboxyamide], the results for the IC50 in experiment [1] and in experiment [2] were 0.373 µM and 0.443 µM, respectively.

On to `Cc1ccccc1S(=O)(=O)NC1(C(=O)NC2C3CC4CC2CC(C(N)=O)(C4)C3)CCCC1` (centres unmarked) [compound 169, N-4-(1-(2-methylphenylsulfonamido)cyclopentanecarboxyamido)adamantane-1-carboxyamide], for which the IC50 in experiment [1] amounted to 0.03 µM; in experiment [2], 0.049 µM. In the same order, the values of `CCc1ccc(S(=O)(=O)NC(C)(C)C(=O)NC2C3CC4CC(C3)CC2C4)cc1` (centres unmarked) [compound 53, N-(adamantane-2-yl)-2-methyl-2-(4-ethylphenylsulfonamido)propanamide] are 0.21 µM and 0.673 µM.

For `NC(=O)C12CC3CC(C1)C(NC(=O)C1(NS(=O)(=O)c4ccccc4C(F)(F)F)CCCCC1)C(C3)C2` (centres unmarked) [compound 181, N-4-(1-(2-trifluoromethylphenylsulfonamido)cyclohexanecarboxyamido)adamantane-1-carboxyamide], the IC50 in experiment [1] turned out to be 0.019 µM; in experiment [2], 0.132 µM. As to `Cc1ccc(F)cc1S(=O)(=O)NC(C)(C)C(=O)NC1C2CC3CC1CC(C(N)=O)(C3)C2` (centres unmarked) [compound 95, N-4-(2-(2-methyl-5-fluorophenylsulfonamido)-2-methylpropanamido)adamantane-1-carboxyamide], the results for the IC50 in experiment [1] and in experiment [2] were 0.013 µM and 0.144 µM, respectively.

Regarding `CC(C)(NS(=O)(=O)c1ccc(F)cc1C(F)(F)F)C(=O)NC1C2CC3CC(C2)CC1C3` (centres unmarked) [compound 32, N-(adamantane-2-yl)-2-methyl-2-(4-fluoro-2-trifluoromethylphenylsulfonamido)propanamide], the results for the half-maximal inhibitory concentration (IC50) in experiment [1] and in experiment [2] were 0.051 µM and 0.583 µM, respectively. `CC(C)(NS(=O)(=O)c1ccc(Cl)cc1F)C(=O)NC1C2CC3CC(C2)CC1C3` (centres unmarked) [compound 31, N-(adamantane-2-yl)-2-methyl-2-(4-chloro-2-fluorophenylsulfonamido)propanamide]: the IC50 in experiment [1] was 0.409 µM; in experiment [2], 1.06 µM. For `CC(C)(NS(=O)(=O)c1c(F)cccc1F)C(=O)NC1C2CC3CC1CC(O)(C3)C2` (centres unmarked) [compound 74, N-(5-hydroxyadamantane-2-yl)-2-methyl-2-(2,6-difluorophenylsulfonamido)propanamide] the same measures were 0.079 µM and 0.305 µM. `NC(=O)C12CC3CC(C1)C(NC(=O)C1(NS(=O)(=O)c4ccc([N+](=O)[O-])c(C(F)(F)F)c4)CCC1)C(C3)C2` (centres unmarked) [compound 147, N-4-(1-(3-trifluoromethyl-4-nitrophenylsulfonamido)cyclobutanecarboxyamido)adamantane-1-carboxyamide]: the IC50 in experiment [1] is 1.3 µM; in experiment [2] it was 0.505 µM.

As to `COc1ccc(S(=O)(=O)NC(C)(C)C(=O)NC2C3CC4CC2CC(C(N)=O)(C4)C3)cc1` (centres unmarked) [compound 86, N-4-(2-(4-methoxyphenylsulfonamido)-2-methylpropanamido)adamantane-1-carboxyamide], the concentration for half-maximal inhibition (IC50) in experiment [1] and in experiment [2] was more than 2.5 µM throughout.

`NC(=O)C12CC3CC(C1)C(NC(=O)C1(NS(=O)(=O)c4ccccc4Br)CCCCC1)C(C3)C2` (centres unmarked) [compound 178, N-4-(1-(2-bromophenylsulfonamido)cyclohexanecarboxyamido)adamantane-1-carboxyamide]: the figures for the IC50 in experiment [1] and in experiment [2] were 0.009 µM and 0.048 µM, respectively. In the same order, the values of `Cc1cccc(S(=O)(=O)NC(C)(C)C(=O)NC2C3CC4CC(C3)CC2C4)c1` (centres unmarked) [compound 28, N-(adamantane-2-yl)-2-methyl-2-(3-methylphenylsulfonamido)propanamide] are 0.133 µM and 0.437 µM.

`Cc1ccc(S(=O)(=O)NC(C)(C)C(=O)NC2C3CC4CC2CC(C(N)=O)(C4)C3)cc1[N+](=O)[O-]` (centres unmarked) [compound 114, N-4-(2-(3-nitro-4-methylphenylsulfonamido)-2-methylpropanamido)adamantane-1-carboxyamide]: the IC50 in experiment [1] is 0.093 µM; in experiment [2] it was 0.207 µM. As for `NC(=O)C12CC3CC(C1)C(NC(=O)C1(NS(=O)(=O)c4ccccc4Cl)CCC1)C(C3)C2` (centres unmarked) [compound 152, N-4-(1-(2-chlorophenylsulfonamido)cyclobutanecarboxyamido)adamantane-1-carboxyamide], the concentration for half-maximal inhibition (IC50) was determined as 0.021 µM in experiment [1] and 0.099 µM in experiment [2].

As to `COc1cc([N+](=O)[O-])ccc1S(=O)(=O)NC(C)(C)C(=O)NC1C2CC3CC1CC(C(N)=O)(C3)C2` (centres unmarked) [compound 128], the IC50 in experiment [1] worked out at 0.076 µM; in experiment [2], 0.22 µM. For the compound `CC(C)(NS(=O)(=O)c1ccccc1C(F)(F)F)C(=O)NC1C2CC3CC(C2)CC1C3` (centres unmarked) [compound 13, N-(adamantane-2-yl)-2-methyl-2-(2-trifluoromethylphenylsulfonamido)propanamide], the IC50 was 0.032 µM in experiment [1] and 0.267 µM in experiment [2].

`CN(C(C)(C)C(=O)NC1C2CC3CC1CC(C(N)=O)(C3)C2)S(=O)(=O)c1ccccc1F` (centres unmarked) [compound 195, N-4-(2-(2-fluoro-N-methylphenylsulfonamido)-2-methylpropanamido)adamantane-1-carboxyamide] displayed an IC50 in experiment [2] of 0.015 µM. In experiment [1], `CC(C)(NS(=O)(=O)c1ccc2ccccc2c1)C(=O)NC1C2CC3CC(C2)CC1C3` (centres unmarked) [compound 21, N-(adamantane-2-yl)-2-methyl-2-(naphthalene-2-sulfonamido)propanamide] returned an IC50 of 0.466 µM. In experiment [1], `CC(C)(NS(=O)(=O)c1ccc(Cl)c(Cl)c1)C(=O)NC1C2CC3CC(C2)CC1C3` (centres unmarked) [compound 11, N-(adamantane-2-yl)-2-methyl-2-(3,4-dichlorophenylsulfonamido)propanamide] had a half-maximal inhibitory concentration (IC50) of 0.35 µM. Still for that read-out and setting: then `CC(C)(NS(=O)(=O)c1cccc2ccccc12)C(=O)NC1C2CC3CC(C2)CC1C3` (centres unmarked) [compound 20, N-(adamantane-2-yl)-2-methyl-2-(naphthalene-1-sulfonamido)propanamide], with 0.304 µM; and `CC(C)(NS(=O)(=O)c1c(Cl)cc(Cl)cc1Cl)C(=O)NC1C2CC3CC(C2)CC1C3` (centres unmarked) [compound 14, N-(adamantane-2-yl)-2-methyl-2-(2,4,6-trichlorophenylsulfonamido)propanamide], with 0.17 µM; and `CC(C)(NS(=O)(=O)c1ccc(C(C)(C)C)cc1)C(=O)NC1C2CC3CC(C2)CC1C3` (centres unmarked) [compound 18, N-(adamantane-2-yl)-2-methyl-2-(4-(t-butyl)phenylsulfonamido)propanamide], with 1.14 µM.
